Reference: patent US20250092054A1, “FUSED PYRIDINES FOR CONTROLLING INVERTEBRATE PESTS” (FMC Corporation, priority 2021, published 2025)
Read-outs that look alike come from different tables or passages of the source.

Legend:
Format in all cases: in vivo
[1] = test system: potato leafhopper (Empoascafabae (Harris)); assay: Test D: control of potato leafhopper through contact and/or systemic means; conditions: 144 h
Description: (§1) Test compounds were formulated using a solution containing 10% acetone, 90% water and 300 ppm Activator 90® non-ionic surfactant (Loveland Products, Loveland, Colorado, USA). The formulated compounds were applied in 1 mL of liquid through an atomizer nozzle positioned 1.27 cm (0.5 inches) above the top of each test unit. Test compounds were sprayed at the rates indicated, and each test was replicated three times.
For evaluating control of potato leafhopper (Empoascafabae (Harris)) through contact and/or systemic means, the test unit consisted of a small open container with a 5-6-day-old Soleil bean plant (primary leaves emerged) inside. White sand was added to the top of the soil, and one of the primary leaves was excised prior to application of the test compound.
Test compounds were formulated and sprayed at 50 and 10 ppm. After spraying of the formulated test compound, the test units were allowed to dry for 1 hour before they were post-infested with 5 potato leafhoppers (18-to-21-day-old adults). A black, screened cap was placed on the top of the test unit, and the test units were held for 6 days in a growth chamber at 20° C. and 70% relative humidity. Each test unit was then visually assessed for insect mortality.

[2] = test system: cotton melon aphid (Aphis gossypii (Glover)); assay: Test F: control of cotton melon aphid through contact and/or systemic means; conditions: 144 h
Description: as §1
For evaluating control of cotton melon aphid (Aphis gossypii (Glover)) through contact and/or systemic means, the test unit consisted of a small open container with a 5-day-old okra plant inside. This was pre-infested with 30-40 insects on a piece of leaf according to the cut-leaf method, and the soil of the test unit was covered with a layer of sand.
Test compounds were formulated and sprayed at 50 and 10 ppm. After spraying, the test units were maintained in a growth chamber for 6 days at 19° C. and 70% relative humidity. Each test unit was then visually assessed for insect mortality.

[3] = test system: green peach aphid (Myzus persicae (Sulzer)); assay: Test E: control of green peach aphid through contact and/or systemic means; conditions: 144 h
Description: as §1
For evaluating control of green peach aphid (Myzus persicae (Sulzer)) through contact and/or systemic means, the test unit consisted of a small open container with a 12-15-day-old radish plant inside. This was pre-infested by placing on a leaf of the test plant 30-40 aphids on a piece of leaf excised from a culture plant (cut-leaf method). The aphids moved onto the test plant as the leaf piece desiccated. After pre-infestation, the soil of the test unit was covered with a layer of sand.
Test compounds were formulated and sprayed at 50 and 10 ppm. After spraying of the formulated test compound, each test unit was allowed to dry for 1 hour and then a black, screened cap was placed on top. The test units were held for 6 days in a growth chamber at 19-21° C. and 50-70% relative humidity. Each test unit was then visually assessed for insect mortality.

[4] = test system: corn planthopper (Peregrinus maidis (Ashmead)); assay: Test C: control of corn planthopper through contact and/or systemic means; conditions: 144 h, corn plant post-infested with nymphs, assessed after 6 days; for mortality at 50 ppm: sprayed at 50 ppm
Description: as §1
For evaluating control of corn planthopper (Peregrinus maidis (Ashmead)) through contact and/or systemic means, the test unit consisted of a small open container with a 3-4-day-old corn (maize) plant inside. White sand was added to the top of the soil prior to application of the test compound.
Test compounds were formulated and sprayed at 50 and 10 ppm. After spraying of the formulated test compound, the test units were allowed to dry for 1 h before they were post-infested with ˜15-20 nymphs (18-to-21-day-old). A black, screened cap was placed on the top of each test unit, and the test units were held for 6 days in a growth chamber at 22-24° C. and 50-70% relative humidity. Each test unit was then visually assessed for insect mortality.

[5] = sprayed at 50 ppm, pre-infested okra plant, assessed after 6 days, read-out: mortality
[6] = sprayed at 10 ppm, Soleil bean plant post-infested with adults, assessed after 6 days, read-out: mortality
[7] = sprayed at 50 ppm, Soleil bean plant post-infested with adults, assessed after 6 days, read-out: mortality
[8] = sprayed at 50 ppm, pre-infested radish plant, assessed after 6 days, read-out: mortality

O=C(NC1CSC1)c1cnc(C2=NOC(c3cc(Cl)cc(Cl)c3)(C(F)(F)F)C2)c2ccsc12 (stereo not shown) [Compound 27, 4-[5-(3,5-dichlorophenyl)-4,5-dihydro-5-(trifluoromethyl)-3-isoxazolyl]-N-3-thietanylthieno[3,2-c]pyridine-7-carboxamide]
≥ 80%: mortality at 50 ppm [1]

O=C(NCC1CC1)c1ncc(C2=NOC(c3cc(Cl)c(F)c(Cl)c3)(C(F)(F)F)C2)c2ccoc12 (stereo not shown) [Compound 14, N-(cyclopropylmethyl)-4-[5-(3,5-dichloro-4-fluorophenyl)-4,5-dihydro-5-(trifluoromethyl)-3-isoxazolyl]furo[2,3-c]pyridine-7-carboxamide]
≥ 80%: mortality at 10 ppm [1] | mortality at 50 ppm [1]

CNC(=O)[C@@H](C)NC(=O)c1ncc(C2=NOC(c3cc(Cl)c(F)c(Cl)c3)(C(F)(F)F)C2)c2c1CCC2 (stereo partly drawn) [Compound 30, 4-[5-(3,5-dichloro-4-fluorophenyl)-4,5-dihydro-5-(trifluoromethyl)-3-isoxazolyl]-6,7-dihydro-N-[(1R)-1-methyl-2-(methylamino)-2-oxoethyl]-5H-cyclopenta[c]pyridine-1-carboxamide]
≥ 80%: mortality at 50 ppm [2]

O=C(NC1CC1)c1ncc(C2=NOC(c3cc(Cl)c(F)c(Cl)c3)(C(F)(F)F)C2)c2ccoc12 (stereo not shown) [Compound 13, N-cyclopropyl-4-[5-(3,5-dichloro-4-fluorophenyl)-4,5-dihydro-5-(trifluoro-methyl)-3-isoxazolyl]furo[2,3-c]pyridine-7-carboxamide]
≥ 80%: mortality at 50 ppm [2] | mortality at 10 ppm [1] | mortality at 50 ppm [1] | mortality at 50 ppm ([3]; in Raphanus sativus)

CCC(=O)NCc1ncc(C2=NOC(c3cccc(C(F)(F)F)c3)(C(F)(F)F)C2)c2ccoc12 (stereo not shown) [Compound 23, N-[[4-[4,5-dihydro-5-(trifluoromethyl)-5-[3-(trifluoromethyl)phenyl]-3-isoxazolyl]furo[2,3-c]pyridin-7-yl]methyl]propanamid]
≥ 80%: mortality at 10 ppm ([2]; sprayed at 10 ppm, pre-infested okra plant, assessed after 6 days) | mortality at 50 ppm [2, 5] | mortality at 10 ppm ([4]; sprayed at 10 ppm) | mortality at 50 ppm [4] | mortality at 10 ppm [1, 6] | mortality at 50 ppm [1, 7] | mortality at 10 ppm ([3]; sprayed at 10 ppm, pre-infested radish plant, assessed after 6 days) | mortality at 50 ppm [3, 8]

CC(=O)NCc1ncc(C2=NOC(c3cccc(C(F)(F)F)c3)(C(F)(F)F)C2)c2ccoc12 (stereo not shown) [Compound 1, N-[[4-[4,5-dihydro-5-(trifluoromethyl)-5-[3-(trifluoromethyl)phenyl]-3-isoxazolyl]furo[2,3-c]pyridin-7-yl]methyl]acetamide]
≥ 80%: mortality at 50 ppm [2, 5] | mortality at 50 ppm [4] | mortality at 10 ppm [1, 6] | mortality at 50 ppm [1, 7] | mortality at 50 ppm [3, 8]

O=C(NC1CC1)c1cnc(C2=NOC(c3cc(Cl)cc(Cl)c3)(C(F)(F)F)C2)c2sccc12 (stereo not shown) [Compound 11, N-cyclopropyl-7-[5-(3,5-dichlorophenyl)-4,5-dihydro-5-(trifluoromethyl)-3-isoxazolyl]thieno[2,3-c]pyridine-4-carboxamide]
≥ 80%: mortality at 10 ppm [1] | mortality at 50 ppm [1]

O=C(NC1CC1)c1cnc(C2=NOC(c3cc(Cl)cc(Cl)c3)(C(F)(F)F)C2)c2ccsc12 (stereo not shown) [Compound 26, N-cyclopropyl-4-[5-(3,5-dichlorophenyl)-4,5-dihydro-5-(trifluoromethyl)-3-isoxazolyl]thieno[3,2-c]pyridine-7-carboxamide]
≥ 80%: mortality at 50 ppm [1]

CNC(=O)[C@@H](C)NC(=O)c1cnc(C2=NOC(c3cc(Cl)cc(Cl)c3)(C(F)(F)F)C2)c2sccc12 (stereo partly drawn) [Compound 7, 7-[5-(3,5-dichlorophenyl)-4,5-dihydro-5-(trifluoromethyl)-3-isoxazolyl]-N-[(1R)-1-methyl-2-(methylamino)-2-oxo-ethyl]thieno[2,3-c]pyridine-4-carboxamide]
≥ 80%: mortality at 50 ppm [2] | mortality at 10 ppm [1] | mortality at 50 ppm [1] | mortality at 50 ppm ([3]; in Raphanus sativus)
